# In PubChem BioAssay AID1259407 (Chemical Carcinogenesis Research Information System (CCRIS), 2018):
# The source made the active and inactive calls. The rule behind the calls is not given here.
# System: CCRIS mutagenicity, Ames/micronucleus/aberration tests
# Test: CCRIS mutagenicity studies
# [1] = Test System: AMES SALMONELLA TYPHIMURIUM, Strain/Indicator: TA98, Metabolic Activation: NONE, Method: STANDARD PLATE
# [2] = Test System: AMES SALMONELLA TYPHIMURIUM, Strain/Indicator: TA98, Metabolic Activation: RAT, LIVER, S-9, AROCLOR 1254, Method: STANDARD PLATE
# [3] = Test System: AMES SALMONELLA TYPHIMURIUM, Strain/Indicator: TA100, Metabolic Activation: NONE, Method: STANDARD PLATE
# [4] = Test System: AMES SALMONELLA TYPHIMURIUM, Strain/Indicator: TA100, Metabolic Activation: RAT, LIVER, S-9, AROCLOR 1254, Method: STANDARD PLATE
# [5] = Test System: AMES SALMONELLA TYPHIMURIUM, Strain/Indicator: TA1535, Metabolic Activation: NONE, Method: STANDARD PLATE
# [6] = Test System: AMES SALMONELLA TYPHIMURIUM, Strain/Indicator: TA1535, Metabolic Activation: RAT, LIVER, S-9, AROCLOR 1254, Method: STANDARD PLATE
# [7] = Test System: AMES SALMONELLA TYPHIMURIUM, Strain/Indicator: TA1537, Metabolic Activation: NONE, Method: STANDARD PLATE
# [8] = Test System: AMES SALMONELLA TYPHIMURIUM, Strain/Indicator: TA1537, Metabolic Activation: RAT, LIVER, S-9, AROCLOR 1254, Method: STANDARD PLATE
# [9] = Test System: AMES SALMONELLA TYPHIMURIUM, Strain/Indicator: TA1538, Metabolic Activation: NONE, Method: STANDARD PLATE
# [10] = Test System: AMES SALMONELLA TYPHIMURIUM, Strain/Indicator: TA1538, Metabolic Activation: RAT, LIVER, S-9, AROCLOR 1254, Method: STANDARD PLATE
smiles,measurement,setting,value
O=[N+]([O-])c1cc(C(F)(F)F)cc([N+](=O)[O-])c1Cl,mutagenic call,[1],inactive; negative
same,mutagenic call,[2],inactive; negative
same,mutagenic call,[3],inactive; negative
same,mutagenic call,[4],inactive; negative
same,mutagenic call,[5],inactive; negative
same,mutagenic call,[6],inactive; negative
same,mutagenic call,[7],inactive; negative
same,mutagenic call,[8],inactive; negative
same,mutagenic call,[9],inactive; negative
same,mutagenic call,[10],inactive; negative
CCCC[C@@H](C)[C@@H](OC(=O)C[C@@H](CC(=O)O)C(=O)O)[C@H](C[C@@H](C)C[C@H](O)CCCC[C@@H](O)C[C@H](O)[C@H](C)N)OC(=O)C[C@@H](CC(=O)O)C(=O)O,mutagenic call,"Test System: AMES SALMONELLA TYPHIMURIUM, Strain/Indicator: TA97A, Metabolic Activation: NONE, Method: STANDARD PLATE",inactive; negative
same,mutagenic call,"Test System: AMES SALMONELLA TYPHIMURIUM, Strain/Indicator: TA97A, Metabolic Activation: RAT, LIVER, S-9, AROCLOR 1254, Method: STANDARD PLATE",inactive; negative
same,mutagenic call,[1],inactive; negative
same,mutagenic call,"Test System: AMES SALMONELLA TYPHIMURIUM, Strain/Indicator: TA98, Metabolic Activation: RAT LIVER S-9, Method: STANDARD PLATE",inactive; negative
same,mutagenic call,[2],inactive; negative
same,mutagenic call,[3],inactive; negative
same,mutagenic call,"Test System: AMES SALMONELLA TYPHIMURIUM, Strain/Indicator: TA100, Metabolic Activation: RAT LIVER S-9, Method: STANDARD PLATE",inactive; negative
same,mutagenic call,[4],inactive; negative
same,mutagenic call,"Test System: AMES SALMONELLA TYPHIMURIUM, Strain/Indicator: TA102, Metabolic Activation: NONE, Method: STANDARD PLATE",inactive; negative
same,mutagenic call,"Test System: AMES SALMONELLA TYPHIMURIUM, Strain/Indicator: TA102, Metabolic Activation: RAT LIVER S-9, Method: STANDARD PLATE",inactive; negative
same,mutagenic call,"Test System: AMES SALMONELLA TYPHIMURIUM, Strain/Indicator: TA102, Metabolic Activation: RAT, LIVER, S-9, AROCLOR 1254, Method: STANDARD PLATE",inactive; negative
CCN(C(=S)[S-])c1ccccc1.CCN(C(=S)[S-])c1ccccc1.[Zn+2],mutagenic call,[1],inactive; negative
same,mutagenic call,"Test System: AMES SALMONELLA TYPHIMURIUM, Strain/Indicator: TA98, Metabolic Activation: S-9, Method: STANDARD PLATE",inactive; negative
same,mutagenic call,[3],inactive; negative
same,mutagenic call,"Test System: AMES SALMONELLA TYPHIMURIUM, Strain/Indicator: TA100, Metabolic Activation: S-9, Method: STANDARD PLATE",inactive; negative
C=CCc1ccccc1N.[Cl-].[Cl-].[Pd+2],mutagenic call,"Test System: AMES SALMONELLA TYPHIMURIUM, Strain/Indicator: TA92, Metabolic Activation: NONE, Method: STANDARD PLATE",inactive; negative
same,mutagenic call,[1],inactive; negative
same,mutagenic call,[3],active; positive
same,mutagenic call,"Test System: AMES SALMONELLA TYPHIMURIUM, Strain/Indicator: TA2410, Metabolic Activation: NONE, Method: STANDARD PLATE",active; positive
COP(=S)(OC)Oc1ccc(SC)c(C)c1,mutagenic call,"End Point: IN VITRO CHROMOSOMAL ABERRATIONS, Test System: HUMAN PERIPHERAL LYMPHOCYTES, Metabolic Activation: NONE",active; positive (structural changes)
same,mutagenic call,"End Point: In vitro chromosomal aberration, Test System: Chinese hamster ovary (CHO) cells, Metabolic Activation: None",inactive; negative
same,mutagenic call,"End Point: In vitro chromosomal aberration, Test System: Chinese hamster ovary (CHO) cells, Metabolic Activation: Rat, Liver, S-9",inactive; negative
same,mutagenic call,"Test System: UDS Rat hepatocytes, Strain/Indicator: Thymidine incorporation, Metabolic Activation: None, Method: Autoradiography",active; positive
Nc1ccc2[nH]c3ccccc3c2c1[N+](=O)[O-],mutagenic call,[1],active; positive
same,mutagenic call,"Test System: AMES SALMONELLA TYPHIMURIUM, Strain/Indicator: TA98, Metabolic Activation: RAT, LIVER, S-9, PHENOBARBITAL, Method: STANDARD PLATE",active; positive
same,mutagenic call,[3],active; positive
same,mutagenic call,"Test System: AMES SALMONELLA TYPHIMURIUM, Strain/Indicator: TA100, Metabolic Activation: RAT, LIVER, S-9, PHENOBARBITAL, Method: STANDARD PLATE",inactive; negative
same,mutagenic call,[7],active; positive
same,mutagenic call,"Test System: AMES SALMONELLA TYPHIMURIUM, Strain/Indicator: TA1537, Metabolic Activation: RAT, LIVER, S-9, PHENOBARBITAL, Method: STANDARD PLATE",active; positive
same,mutagenic call,[9],active; positive
same,mutagenic call,"Test System: AMES SALMONELLA TYPHIMURIUM, Strain/Indicator: TA1538, Metabolic Activation: RAT, LIVER, S-9, PHENOBARBITAL, Method: STANDARD PLATE",active; positive
same,mutagenic call,"Test System: AMES SALMONELLA TYPHIMURIUM, Strain/Indicator: TA1977, Metabolic Activation: NONE, Method: STANDARD PLATE",active; positive
same,mutagenic call,"Test System: AMES SALMONELLA TYPHIMURIUM, Strain/Indicator: TA1977, Metabolic Activation: RAT, LIVER, S-9, PHENOBARBITAL, Method: STANDARD PLATE",active; positive
O=C(O)COc1ccc(C(=O)c2cccs2)c(Cl)c1Cl,mutagenic call,"Test System: AMES SALMONELLA TYPHIMURIUM, Strain/Indicator: TA100(FR1), Metabolic Activation: NONE, Method: STANDARD PLATE",inactive; negative
same,mutagenic call,"Test System: AMES SALMONELLA TYPHIMURIUM, Strain/Indicator: TA100(FR1), Metabolic Activation: RAT, LIVER, S-9, PHENOBARBITAL AND 3-METHYLCHOLANTHRENE, Method: STANDARD PLATE",inactive; negative
same,mutagenic call,[3],inactive; negative
same,mutagenic call,"Test System: AMES SALMONELLA TYPHIMURIUM, Strain/Indicator: TA100, Metabolic Activation: RAT, LIVER, S-9, PHENOBARBITAL AND 3-METHYLCHOLANTHRENE, Method: STANDARD PLATE",inactive; negative
same,mutagenic call,"Test System: CHINESE HAMSTER V-79, Strain/Indicator: V-79/6-THIOGUANINE, Metabolic Activation: NONE",inactive; negative
same,mutagenic call,"Test System: CHINESE HAMSTER V-79, Strain/Indicator: V-79/6-THIOGUANINE, Metabolic Activation: RAT, LIVER, HEPATOCYTES (SHERMAN OR SPRAGUE-DAWLEY RATS)",inactive; negative
same,mutagenic call,"Test System: CHINESE HAMSTER V-79, Strain/Indicator: V-79/OUABAIN, Metabolic Activation: NONE",active; positive
same,mutagenic call,"Test System: CHINESE HAMSTER V-79, Strain/Indicator: V-79/OUABAIN, Metabolic Activation: RAT, LIVER, HEPATOCYTES (SHERMAN OR SPRAGUE-DAWLEY RATS)",active; positive
ClC(CBr)CBr,mutagenic call,"Test System: AMES SALMONELLA TYPHIMURIUM, Strain/Indicator: TA100, Metabolic Activation: RAT, LIVER, MICROSOMES, PHENOBARBITAL, NADPH COFACTORS, Method: STANDARD PLATE",active; positive
same,mutagenic call,"Test System: AMES SALMONELLA TYPHIMURIUM, Strain/Indicator: TA100, Metabolic Activation: RAT, LIVER, MICROSOMES, PHENOBARBITAL, Method: STANDARD PLATE",inactive; negative
Cc1c(N)cc([N+](=O)[O-])c(N)c1C,mutagenic call,[1],active; positive
same,mutagenic call,[2],active; positive
same,mutagenic call,[3],inactive; negative
same,mutagenic call,[4],inactive; negative
same,mutagenic call,[5],inactive; negative
same,mutagenic call,[6],inactive; negative
same,mutagenic call,[7],inactive; negative
same,mutagenic call,[8],inactive; negative
same,mutagenic call,[9],active; positive
same,mutagenic call,[10],active; positive
NC(=O)Nc1cccc2cccnc12,mutagenic call,"Test System: AMES SALMONELLA TYPHIMURIUM, Strain/Indicator: TA100, Metabolic Activation: S-9, Method: PREINCUBATION",inactive; negative
O=C1c2ccc(O)cc2C(=O)c2ccc(O)cc21,mutagenic call,[1],inactive; negative
same,mutagenic call,[2],inactive; negative
same,mutagenic call,[3],inactive; negative
same,mutagenic call,[4],inactive; negative
same,mutagenic call,[5],inactive; negative
same,mutagenic call,[6],inactive; negative
same,mutagenic call,[9],inactive; negative
same,mutagenic call,[10],inactive; negative
Cc1cc(O)c2c(c1O)C(=O)c1cc(O)cc(O)c1C2=O,mutagenic call,[7],inactive; negative
same,mutagenic call,"Test System: AMES SALMONELLA TYPHIMURIUM, Strain/Indicator: TA1537, Metabolic Activation: RAT, LIVER, S-9, PCB, Method: STANDARD PLATE",inactive; negative
